Tested on: synthesis of procollagen I by normal human fibroblasts (NHF)
Assay: Synthesis of type I procollagen by aged normal human fibroblasts, ELISA on culture supernatants
Assay type: cell-based
Conditions: active agents alone
Description: The influence of the extracts constituting the combination of the invention on the synthesis of procollagen I by normal human fibroblasts (NHF) is studied. Procollagen is a precursor form of collagen secreted in the extracellular medium where the ends are cut in order to result in the collagen subunit. The combining of these collagen molecules will subsequently create the collagen fibers. 1. Cell Model • Type: Normal human fibroblasts (NHF), aged by passages in culture (20th passage). • Culturing conditions: 37° C., 5% CO2. • Culture medium: (Invitrogen 21090-22) supplemented with L-glutamine 2 mM, penicillin 50 UI/ml-streptomycin 50 μg/ml, 10% FCS (Biowest S1810). • Test medium: […]. The active agents are dissolved in the culture medium at the concentration specified in the following table. The synthesis of type I procollagen by these cells was evaluated by the ELISA technique from the culture supernatants of aged fibroblasts. The NHFs are cultured in a 96-well microplate at the rate of 7500 cells/well for 24 hours. At 80% confluence, the medium is replaced with the test medium containing the active agents to be tested or the references. The cells are incubated for 72 hours. The culture supernatants are subsequently recovered and stored at −20° C. while awaiting assaying. […] The amounts of procollagen I are expressed as ng/mg of protein. […]

O=C1O[C@H]([C@@H](O)CO)C(O)=C1O [Vitamin C, Ascorbic acid]
Procoll. I (ng/mg of prot) (aged NHF (20th passage), 72 hours, untreated control 1439 ± 161): 2431 ± 55 ng/mg of prot | Variation (vs untreated control): +67%

Reference: patent publication US10258561B2, “Cosmetic composition containing a brown alga extract, a yeast extract and ascorbic acid” (LVMH RECHERCHE, priority 2013, dated 2019)
